For data set [1], the system named is phospho-AMPK Thr-172 (p-AMPK). The experiment in a line: Western blot of phospho-AMPK Thr-172 in HEK293T cells. In kind it is cell-based, human. The following applies: 1 and 10μM, negatives re-screened at 5 and 20 μM, 3 hours. As to the method:
AMPK is a metabolic sensor that maintains cellular energy supply. As validation of these changes in lipid metabolism and cellular respiration we evaluated phospho-AMPK Thr-172 (p-AMPK) levels by Western blot in HEK293 cells treated with the phenylbenzamide derivatives. Compounds were screened at 1 and 10μM using the known uncouplers niclosamide and FCCP as positive controls (Fig 4A). […] We concluded that compounds that had little effect on oxygen consumption rates also had little effect on phosphorylation of AMPK.
(In general: Immunoblotting shows a protein as a band on a membrane.)

Data set [2] deals with Salmonella typhimurium TA1535. As to conditions: for Mean Revertant Colony Counts TA-1535 SP9+: with S9; for Mean Revertant Colony Counts TA-1535 S9-: without S9.

Where two headings read alike, the source gives them in different places.

For the molecule `CC(C)(C)c1ccc(O)c(C(=O)Nc2ccc(C(=O)O)cc2C(F)(F)F)c1` [Compound 500873, 4-[(5-tert-butyl-2-hydroxy)amido]-3-(trifluoromethyl)benzoic acid], the “phosphorylation of AMPK (p-AMPK Thr-172) by Western blot” value in data set [1] is listed as “no detectable changes in pAMPK levels”.

As to `CC(C)(C)c1cc(C(=O)Nc2ccc(C(=O)O)cc2Cl)c(O)c(C(C)(C)C)c1` [Compound 600453, 3-Chloro-4-[(3,5-di-tert-butyl-2-hydroxybenzene)amido]benzoic acid], the “Mean Revertant Colony Counts TA-1535 SP9+” value was 2.7 in data set [2] (1.5 ug/Well); 3.7 in data set [2] (4 ug/Well); 2.7 in data set [2] (10 ug/Well); 2.3 in data set [2] (25 ug/Well); 3.0 in data set [2] (64 ug/Well); 3.3 in data set [2] (160 ug/Well). In addition, the “Mean Revertant Colony Counts TA-1535 SP9+” value in data set [2] (400 ug/Well) and in data set [2] (1000 ug/Well) was 2.0 in each case. For the same molecule, the “Mean Revertant Colony Counts TA-1535 S9-” value came out at 4.0 in data set [2] (1.5 ug/Well); 3.7 in data set [2] (4 ug/Well); 1.7 in data set [2] (10 ug/Well); 2.7 in data set [2] (25 ug/Well); 1.7 in data set [2] (64 ug/Well); 4.0 in data set [2] (160 ug/Well). The “Mean Revertant Colony Counts TA-1535 S9-” value in data set [2] (400 ug/Well) and in data set [2] (1000 ug/Well) was 2.7 in each case. The “fold increase in the mean number of revertant colonies, TA1535” value in data set [2] (any concentration tested, vs negative control) is under 3 fold.

These data come from article PMC6201879, “N-substituted phenylbenzamides of the niclosamide chemotype attenuate obesity related changes in high fat diet fed mice” (PLoS ONE, 2018).
